The record followed here is ChEMBL document CHEMBL1136991, “Novel potent BRAF inhibitors: toward 1 nM compounds through optimization of the central phenyl ring” (J Med Chem, 2009).

Some results are limits rather than exact numbers.

Assay [1] concerns the target T1, Mitogen-activated protein kinase 15 (Homo sapiens) (UniProt Q8TD08).
T1 sequence (whole entry): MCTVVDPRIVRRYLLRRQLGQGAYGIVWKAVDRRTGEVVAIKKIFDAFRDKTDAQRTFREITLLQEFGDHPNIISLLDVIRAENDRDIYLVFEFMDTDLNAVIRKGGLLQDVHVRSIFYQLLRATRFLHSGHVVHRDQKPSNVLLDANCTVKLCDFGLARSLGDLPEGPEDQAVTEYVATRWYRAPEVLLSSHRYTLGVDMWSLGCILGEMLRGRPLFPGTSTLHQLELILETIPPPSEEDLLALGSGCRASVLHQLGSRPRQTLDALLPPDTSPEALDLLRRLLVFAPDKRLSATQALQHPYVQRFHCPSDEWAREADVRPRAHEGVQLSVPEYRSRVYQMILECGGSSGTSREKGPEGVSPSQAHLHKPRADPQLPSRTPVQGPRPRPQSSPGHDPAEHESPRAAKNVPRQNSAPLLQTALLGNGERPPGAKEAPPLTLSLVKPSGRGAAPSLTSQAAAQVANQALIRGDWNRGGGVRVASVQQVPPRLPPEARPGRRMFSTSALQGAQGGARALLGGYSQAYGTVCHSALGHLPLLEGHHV
As to the kind of experiment: Inhibition of ERK8 at 1 uM relative to control.

Assay [2] concerns the target Calcium/calmodulin-dependent protein kinase kinase 2 (Homo sapiens) (UniProt Q96RR4). The assay is described as follows: Inhibition of CAMKKb at 1 uM relative to control.
Assay [3] addresses Serine/threonine-protein kinase Nek6 (Homo sapiens) (UniProt Q9HC98). As to the kind of experiment: Inhibition of NEK6 at 1 uM relative to control.
The target in assay [4] is Maternal embryonic leucine zipper kinase (Homo sapiens) (UniProt Q14680). The assay is described as follows: Inhibition of MELK at 1 uM relative to control.
Assay [5] deals with T2, 5'-AMP-activated protein kinase subunit beta-1 (Homo sapiens) (UniProt Q9Y478).
T2 sequence (whole entry): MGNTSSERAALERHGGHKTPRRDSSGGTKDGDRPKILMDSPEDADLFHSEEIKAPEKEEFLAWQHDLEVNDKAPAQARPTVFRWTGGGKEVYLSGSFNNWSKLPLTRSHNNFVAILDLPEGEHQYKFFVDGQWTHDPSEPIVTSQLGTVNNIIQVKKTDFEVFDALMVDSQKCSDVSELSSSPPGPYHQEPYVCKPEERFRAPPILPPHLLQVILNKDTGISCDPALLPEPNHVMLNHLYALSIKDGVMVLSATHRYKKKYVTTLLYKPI
The assay is described as follows: Inhibition of AMPK at 1 uM relative to control.

Assay [6] concerns the target Serine/threonine-protein kinase N2 (Homo sapiens) (UniProt Q16513). The assay is described as follows: Inhibition of PRK2 at 1 uM relative to control.
Assay [7] concerns the target Serine/threonine-protein kinase pim-1 (Homo sapiens) (UniProt P11309). The assay is described as follows: Inhibition of PIM1 at 1 uM relative to control.
Assay [8] addresses T3, Dual specificity tyrosine-phosphorylation-regulated kinase 3 (Homo sapiens) (UniProt O43781).
T3 sequence (whole entry): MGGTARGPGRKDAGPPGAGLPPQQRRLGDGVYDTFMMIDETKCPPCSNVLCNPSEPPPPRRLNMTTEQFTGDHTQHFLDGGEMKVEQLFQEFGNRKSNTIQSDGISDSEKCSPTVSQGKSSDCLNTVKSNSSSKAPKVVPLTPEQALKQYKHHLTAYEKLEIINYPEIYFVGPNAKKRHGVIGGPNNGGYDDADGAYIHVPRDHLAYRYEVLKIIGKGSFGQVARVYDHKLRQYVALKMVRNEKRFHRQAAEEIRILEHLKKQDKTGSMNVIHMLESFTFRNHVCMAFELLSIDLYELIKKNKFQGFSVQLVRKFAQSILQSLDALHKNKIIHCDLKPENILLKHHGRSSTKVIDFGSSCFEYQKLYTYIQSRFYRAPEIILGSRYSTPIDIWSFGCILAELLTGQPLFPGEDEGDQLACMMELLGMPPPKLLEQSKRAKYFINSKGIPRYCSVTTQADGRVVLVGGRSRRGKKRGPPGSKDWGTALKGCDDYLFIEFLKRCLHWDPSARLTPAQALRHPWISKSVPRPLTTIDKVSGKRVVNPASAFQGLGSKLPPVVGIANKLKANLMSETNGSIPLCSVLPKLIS
The assay is described as follows: Inhibition of DYRK3 at 1 uM relative to control.

A short description of assay [9]: Inhibition of p38S at 1 uM relative to control.
Assay [10] deals with T4, Serine/threonine-protein kinase BRSK2 (Homo sapiens) (UniProt Q8IWQ3).
T4 sequence (whole entry): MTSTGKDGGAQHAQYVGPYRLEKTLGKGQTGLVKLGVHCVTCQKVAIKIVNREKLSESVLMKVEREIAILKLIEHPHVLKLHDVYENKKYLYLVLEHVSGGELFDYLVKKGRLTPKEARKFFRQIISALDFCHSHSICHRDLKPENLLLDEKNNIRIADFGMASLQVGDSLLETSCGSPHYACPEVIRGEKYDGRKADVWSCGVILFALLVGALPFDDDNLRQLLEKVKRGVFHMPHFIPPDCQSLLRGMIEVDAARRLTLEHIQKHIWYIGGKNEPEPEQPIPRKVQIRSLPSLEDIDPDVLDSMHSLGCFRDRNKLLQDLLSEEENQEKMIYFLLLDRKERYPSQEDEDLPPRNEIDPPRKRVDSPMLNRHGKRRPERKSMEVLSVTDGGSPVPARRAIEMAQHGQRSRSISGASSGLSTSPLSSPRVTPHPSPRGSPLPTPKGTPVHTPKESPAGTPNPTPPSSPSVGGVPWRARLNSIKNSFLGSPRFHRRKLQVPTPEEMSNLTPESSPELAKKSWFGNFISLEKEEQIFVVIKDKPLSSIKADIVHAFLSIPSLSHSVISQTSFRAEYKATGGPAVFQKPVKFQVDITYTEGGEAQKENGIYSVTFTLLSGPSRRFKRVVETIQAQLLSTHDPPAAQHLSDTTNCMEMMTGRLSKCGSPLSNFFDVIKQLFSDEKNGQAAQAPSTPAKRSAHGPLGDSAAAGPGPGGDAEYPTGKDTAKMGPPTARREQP
As to the kind of experiment: Inhibition of BRSK2 at 1 uM relative to control.

Chain of Serine/threonine-protein kinase pim-1 (Homo sapiens) (P11309 whole entry, looked up): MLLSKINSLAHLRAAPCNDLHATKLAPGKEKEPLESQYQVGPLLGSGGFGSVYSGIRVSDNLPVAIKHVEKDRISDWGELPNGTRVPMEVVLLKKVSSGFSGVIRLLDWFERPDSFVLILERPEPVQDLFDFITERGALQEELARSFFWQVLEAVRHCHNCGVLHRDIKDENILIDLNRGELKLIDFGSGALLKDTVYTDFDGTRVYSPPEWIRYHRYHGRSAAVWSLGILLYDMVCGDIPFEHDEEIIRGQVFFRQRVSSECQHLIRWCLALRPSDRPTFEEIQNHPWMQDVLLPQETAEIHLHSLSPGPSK
Chain of Serine/threonine-protein kinase N2 (Homo sapiens) (Q16513 whole entry, looked up): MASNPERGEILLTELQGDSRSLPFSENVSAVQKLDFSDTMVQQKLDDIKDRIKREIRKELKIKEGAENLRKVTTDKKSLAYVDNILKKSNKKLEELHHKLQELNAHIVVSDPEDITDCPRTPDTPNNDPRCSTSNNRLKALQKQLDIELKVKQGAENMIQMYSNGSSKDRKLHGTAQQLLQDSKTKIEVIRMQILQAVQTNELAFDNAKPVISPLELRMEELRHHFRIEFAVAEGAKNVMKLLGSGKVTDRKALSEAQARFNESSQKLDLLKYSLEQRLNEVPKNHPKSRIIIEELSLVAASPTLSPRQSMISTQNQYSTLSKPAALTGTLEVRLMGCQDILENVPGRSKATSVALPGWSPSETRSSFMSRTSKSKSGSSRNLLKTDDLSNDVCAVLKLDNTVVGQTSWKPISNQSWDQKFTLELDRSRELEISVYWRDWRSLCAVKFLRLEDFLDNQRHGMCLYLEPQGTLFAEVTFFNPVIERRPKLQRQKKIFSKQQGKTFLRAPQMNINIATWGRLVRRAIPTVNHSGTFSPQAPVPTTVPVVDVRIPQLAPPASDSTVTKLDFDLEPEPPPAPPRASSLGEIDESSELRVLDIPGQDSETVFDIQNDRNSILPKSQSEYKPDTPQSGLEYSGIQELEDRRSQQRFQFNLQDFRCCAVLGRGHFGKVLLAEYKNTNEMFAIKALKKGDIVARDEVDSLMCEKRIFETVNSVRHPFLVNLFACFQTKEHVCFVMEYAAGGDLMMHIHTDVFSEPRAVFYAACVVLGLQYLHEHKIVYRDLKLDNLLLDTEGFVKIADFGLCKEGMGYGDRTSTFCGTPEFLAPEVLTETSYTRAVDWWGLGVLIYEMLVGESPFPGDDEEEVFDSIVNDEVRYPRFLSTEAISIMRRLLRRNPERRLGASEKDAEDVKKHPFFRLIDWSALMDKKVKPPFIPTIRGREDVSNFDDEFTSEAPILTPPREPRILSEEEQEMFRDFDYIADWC
Chain of Serine/threonine-protein kinase Nek6 (Homo sapiens) (Q9HC98 whole entry): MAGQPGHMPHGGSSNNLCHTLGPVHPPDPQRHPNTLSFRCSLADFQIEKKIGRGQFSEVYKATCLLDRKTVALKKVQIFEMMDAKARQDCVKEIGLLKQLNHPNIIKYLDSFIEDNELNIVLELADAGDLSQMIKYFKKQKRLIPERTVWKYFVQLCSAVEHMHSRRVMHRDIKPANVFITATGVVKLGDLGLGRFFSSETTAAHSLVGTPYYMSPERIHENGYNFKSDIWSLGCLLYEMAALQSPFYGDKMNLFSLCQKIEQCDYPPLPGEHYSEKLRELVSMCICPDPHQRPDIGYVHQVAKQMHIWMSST
Chain of Calcium/calmodulin-dependent protein kinase kinase 2 (Homo sapiens) (Q96RR4 2-588 limits assumed): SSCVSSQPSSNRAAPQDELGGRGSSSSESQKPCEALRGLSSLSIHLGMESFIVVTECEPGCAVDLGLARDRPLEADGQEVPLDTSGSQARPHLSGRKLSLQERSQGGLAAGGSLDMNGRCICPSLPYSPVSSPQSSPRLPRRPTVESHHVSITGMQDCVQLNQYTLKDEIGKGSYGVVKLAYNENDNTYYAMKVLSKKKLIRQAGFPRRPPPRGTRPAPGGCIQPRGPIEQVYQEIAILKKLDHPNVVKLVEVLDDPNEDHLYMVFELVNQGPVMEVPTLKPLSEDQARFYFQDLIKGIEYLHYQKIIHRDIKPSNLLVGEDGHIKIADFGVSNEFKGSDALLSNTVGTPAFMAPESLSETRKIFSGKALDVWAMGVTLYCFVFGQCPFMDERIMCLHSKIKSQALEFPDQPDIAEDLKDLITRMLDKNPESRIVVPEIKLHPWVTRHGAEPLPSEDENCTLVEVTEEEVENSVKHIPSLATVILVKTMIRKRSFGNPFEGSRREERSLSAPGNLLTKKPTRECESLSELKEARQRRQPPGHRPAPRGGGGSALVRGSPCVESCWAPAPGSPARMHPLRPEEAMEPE
Chain of Maternal embryonic leucine zipper kinase (Homo sapiens) (Q14680 whole entry, looked up): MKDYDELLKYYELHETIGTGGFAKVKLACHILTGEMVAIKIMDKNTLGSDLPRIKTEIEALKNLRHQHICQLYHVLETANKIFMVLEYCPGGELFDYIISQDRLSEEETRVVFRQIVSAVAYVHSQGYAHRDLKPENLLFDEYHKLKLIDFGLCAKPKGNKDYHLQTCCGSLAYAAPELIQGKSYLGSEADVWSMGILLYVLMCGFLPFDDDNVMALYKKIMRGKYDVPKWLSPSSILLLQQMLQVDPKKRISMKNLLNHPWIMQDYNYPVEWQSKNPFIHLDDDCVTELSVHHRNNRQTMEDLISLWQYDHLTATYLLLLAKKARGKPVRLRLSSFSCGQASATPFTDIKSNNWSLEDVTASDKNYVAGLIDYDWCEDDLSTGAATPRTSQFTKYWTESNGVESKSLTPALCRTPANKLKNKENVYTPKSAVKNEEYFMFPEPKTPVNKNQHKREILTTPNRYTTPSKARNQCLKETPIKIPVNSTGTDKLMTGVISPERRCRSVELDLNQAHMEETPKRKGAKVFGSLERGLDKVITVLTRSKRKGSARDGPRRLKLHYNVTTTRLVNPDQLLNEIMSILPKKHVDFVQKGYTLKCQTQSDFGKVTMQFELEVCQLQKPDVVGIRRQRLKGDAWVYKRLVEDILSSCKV

Take `O=C(Nc1cc(C(F)(F)F)ccc1F)Nc1ccc(Oc2ccnc3[nH]c(=O)[nH]c23)c2ccccc12`: the residual activity in assay [1], in assay [2], in assay [3], in assay [4], in [5] and in [6] was 100% throughout. In addition, the residual activity in assay [7] stood at 75%; in assay [8], 100%; in assay [9], 75%; in [10], 50%.

Turning to `CSc1cc(Oc2ccnc3[nH]c(=O)[nH]c23)ccc1NC(=O)Nc1cccc(C(F)(F)F)c1`, the residual activity worked out at 100% in assay [1]; 50% in assay [2]; 100% in assay [3]; 100% in assay [4]; 100% in assay [5]; 100% in assay [6]. The residual activity in assay [7] amounted to 100%; in assay [8], 75%; in assay [9], 50%; in assay [10] it was 50%.

Regarding `CC(C)(C)c1cccc(NC(=O)Nc2ccc(Oc3ccnc4[nH]c(=O)[nH]c34)c3ccccc23)c1`, the residual activity was under 25% in assay [1]; 75% in assay [2]; 75% in assay [3]; 75% in assay [4]; 75% in [5]; 100% in [6]. Further, the residual activity in [7] is 75%; in assay [8], 75%; in [9], 50%; in assay [10], 75%.
